# Test results: article PMC11641860 (International Journal of Molecular Sciences, 2024)
# Tests used:
# Caco-2 cells = assay: cells; format: cell-based; conditions: Homo sapiens; Caco-2, treated for 24 h, mean (SE); read-out: calculated IC50
# Experimental: (§1) To evaluate cell viability, an MTT assay was performed. […] Cell viability was directly proportional to registered absorbance and was expressed as relative viability with respect to vehicle-treated cells.
# HEK 293 cells = assay: cells; format: cell-based; conditions: Homo sapiens, HEK293; HEK 293, treated for 24 h, mean (SE); read-out: calculated IC50
# Experimental: as §1
# HaCat cells = assay: cells; format: cell-based; conditions: Homo sapiens, treated for 24 h, mean (SE), read-out: calculated IC50
# Experimental: as §1
# HepG2 cells [1] = assay: cells; format: cell-based; conditions: Homo sapiens; HepG2, treated for 24 h, mean (SE); read-out: calculated IC50
# Experimental: as §1
# MRC5 cells = assay: cells; format: cell-based; conditions: Homo sapiens; MRC5, treated for 24 h, mean (SE); read-out: calculated IC50
# Experimental: as §1
# p53 = assay: Western blot of p53; format: cell-based, human; conditions: HepG2, 24 h, higher concentrations used
# Experimental: (§2) Western blot analyses were performed to detect protein levels and the expression of several proteins after treatments with 4-OP. After treatments, cells were mechanically harvested and lysed in a buffer containing the following: 20 mM Tris-HCl, pH 7.5, 150 mM NaCl, 1 mM EDTA, 1 mM dithiothreitol, 0.1% sodium dodecyl sulfate, 1% Triton X-100, 1 mM orthovanadate and an inhibitor cocktail (all from Merck). The protein mixtures were resolved in a polyacrylamide denaturant gel and then electrotransferred to a polyvinylidene difluoride (PVDF) membrane (Microtech, Naples, Italy) by using the Trans-Blot Turbo Transfer System (Bio-Rad Laboratories, Milan, Italy). After a blocking step with 5% skimmed milk in Tris-buffered saline (TBS), membranes were incubated with the following primary antibodies, diluted 1:1000 in T-TBS-1% milk: mouse anti-p53 (Santa Cruz, CA, USA); mouse anti-GRP78 (Invitrogen, Milan, Italy); rabbit anti-LC3 (Invitrogen); mouse anti-caspase 3 (Invitrogen); mouse anti-p62 (Invitrogen); rabbit anti-SOD (Elabscience, Houston, TX, USA); rabbit anti-CAT (Elabscience). For normalization, a mouse anti-GAPDH (Santa Cruz) diluted 1:4000 in T-TBS-1% milk was used.
# HepG2 cells [2] = assay: Apoptosis: cleaved caspase 3 Western blot and TUNEL assay; format: cell-based, human; conditions: HepG2, caspase-3 8 h, TUNEL 24 h
# Experimental: as §2
# Microscope observation and image acquisition were performed as described above.
# XBP1 = XBP1 splicing detection by conventional PCR; format: cell-based, human; conditions: HepG2, 4 h, 100 μM
# Experimental: To obtain cDNA, 1 μg of RNA was retro-transcribed employing the QuantiTect Reverse Transcription Kit (Qiagen, Milan, Italy). Finally, a conventional PCR was performed to amplify the unspliced and the spliced form for XBP1, with the following primers: 5′-[…]-3′ and 5′-[…]-3′, as previously reported. Amplified cDNA was run on a 2.5% agarose gel and stained with ethidium bromide.
# GRP78 [3] = assay: Western blot of GRP78 in HepG2 cells; format: cell-based, human; conditions: HepG2, 24 h, higher induction at 100 μM
# Experimental: as §2
# GRP78 [4] = assay: Western blot of GRP78 in MRC5 cells; format: cell-based, human; conditions: MRC5, 24 h
# Experimental: as §2
# GRP78 [5] = assay: Western blot of GRP78 in Caco-2 cells; format: cell-based, human; conditions: Caco-2, 24 h
# Experimental: as §2
# p62, LC3-II = assay: Western blot of autophagic markers p62 and LC3-II; format: cell-based, human
# Experimental: as §2
# HepG2 cells [6] = assay: LC3 immunofluorescence staining; format: cell-based, human; conditions: HepG2, 24 h, compared with vehicle
# Experimental: Then, coverslips were incubated for 1 h with the anti-LC3 rabbit antibody (1:100, in 1% bovine albumin serum) and then with an anti-rabbit tetramethylrhodamine-conjugated antibody (1:100, in 0.1% bovine serum albumin) (Thermo Fisher Scientific). After washing, coverslips were mounted with Mowiol and observed with an Olympus CKX41 fluorescent microscope (Olympus Italia srl, Segrate, Italy) and processed with the Olympus CKX41 software (cellSens Dimension 1.5).
# CAT, SOD = assay: Western blot of CAT and SOD; format: cell-based, human
# Experimental: as §2
# type 2 transglutaminase = assay: Type 2 transglutaminase activity in Caco-2 cells in Ca2+-free condition; format: cell-based, human; conditions: Caco-2, Ca2+-free condition, preliminary
# Text: It has often been reported that apoptosis induced by EDCs can be caused by an unsolved ER-stress.
structure (smiles),measurement,setting,value
"CCCCCCCCCc1ccc(O)cc1 [4-NP, 4-nonylphenol]",IC50,Caco-2 cells,93.3 µM
same,IC50,HEK 293 cells,62.6 µM
same,IC50,HaCat cells,77.4 µM
same,IC50,HepG2 cells [1],83.3 µM
same,IC50,MRC5 cells,75.8 µM
"CCCCCCCCc1ccc(O)cc1 [4-OP, 4-octylphenol]",p53 expression,p53,decreased
same,"apoptosis (cleaved caspase 3, chromatin fragmentation)",HepG2 cells [2],able to induce apoptosis
same,XBP1 spliced form,XBP1,splicing was clear
same,GRP78 expression,GRP78 [3],increase in a dose-dependent manner
same,GRP78 expression,GRP78 [4],markedly induced
same,GRP78 expression,GRP78 [5],less evident
same,p62 level,"p62, LC3-II; HepG2, 4 h",decreased
same,LC3-II level on adding Baf A1,"p62, LC3-II; HepG2, 4 h 4-OP then further 20 h Baf A1 50 nM",further accumulation of LC3-II
same,LC3-II level,"p62, LC3-II; HepG2, 24 h",increased
same,autophagosomes (LC3 perinuclear puncta),HepG2 cells [6],accumulation of autophagosomes
same,CAT level,"CAT, SOD; HepG2, 4 h",did not vary
same,SOD level,"CAT, SOD; HepG2, 4 h, 100 μM",reduction
same,SOD expression level,"CAT, SOD; HepG2, 18 h, 25 μM, vs vehicle-treated cells",lower
same,SOD expression level,"CAT, SOD; HepG2, 18 h, 50 μM",increased
same,CAT protein level,"CAT, SOD; HepG2, 18 h, 50 μM, compared to the control",significantly more expressed
C[C@H](CCC(=O)O)C[C@H](C)C[C@H](C)C(=O)/C=C(\O)[C@H](C)C[C@H](C)C/C=C/[C@@H](C)[C@@H](O)[C@@H](C)[C@@H](O)C[C@@H]1CC[C@@](C)([C@H]2CC[C@@](C)([C@@H](C)O)O2)O1 [ionomycin],increase of transglutaminase activity,type 2 transglutaminase,did not increase
